Laboratory results: PubChem BioAssay AID1918996 (Molecular Pharmacology Branch, DTP, NCI, 2023)
“And” between values parts separate entries of the source, which are not always exact repeats. Identical values can stand only once.

System: 349418-098-R-PDC complex spheroid growth
Test: Anticancer human tumor 349418-098-R-PDC patient-derived lung adenocarcinoma cell line growth inhibition [AhR]
Details: for viability, T/C: stronger effect = lower value; for IC50: curve of compound
From the text: Multicellular complex tumor spheroid response to aryl hydrocarbon receptor antagonists in combination with a variety of drugs and investigational agents in selected tumor cell lines
The current study was undertaken to assess response to aryl hydrocarbon receptor antagonists in combination with standard-of-care drugs and investigational agents in solid tumor complex spheroid models. Complex spheroids include a stromal component modeled by human endothelial cells (HUVEC) and fibroblasts modeled by human mesenchymal stem cells (MSCs). The concentration ranges selected for each drug and investigational agent were based upon clinically achievable concentrations if the clinical Cmax of the agent was known.
Compounds. The drugs and investigational agents: BAY 2416964 (NSC825713), GNF351 (NSC835774), CH-223191 (NSC835775), CPI-455 (NSC825282), aza-TdCyd (NSC777586), decitabine (NSC127716), belinostat (NSC758774), entinostat (NSC756642), pevonedistat (NSC761192), tazemetostat (NSC777109), talazoparib (NSC765396), olaparib (NSC753686), selinexor (NSC780203), nedisertib (M3814, NSC802822), bortezomib (NSC756655), venetoclax (NSC766270), doxorubicin (NSC123127), elimusertib (BAY189344, NSC800525), ceralasertib (AZD6738, NSC777638), TAK-243 (NSC785004), alisertib (NSC759677), etoposide (NSC141540), topotecan (NSC609699), eribulin (NSC707389), gemcitabine (NSC613327), carboplatin (NSC241240), cisplatin (NSC119875), and SN-38 (NSC673596) were obtained from the National Cancer Institute (NCI) Developmental Therapeutics Program Chemical Repository (32). The FDA-approved anticancer drug set is available from the Developmental Therapeutics Program at https://dtp.cancer.gov/organization/dscb/obtaining/available plates.htm. […] The stock solutions were prepared in dimethyl sulfoxide (DMSO, Sigma-Aldrich, St. Louis, MO, cat. D2650), except for the platinum compounds which were prepared in saline (Quality Biological, Gaithersburg, MD, cat. 114-055-101), at 800-fold the tested concentration and stored at -70 degrees C prior to their use. All drugs and investigational agents were tested over a range starting from a high concentration at or near the clinical Cmax and decreasing in half-log increments. If the clinical Cmax for an agent had not been determined, the highest concentration tested was 10 microM (Table 1).
Cell Culture. All cells were maintained in an incubator at 37 degrees C and 5% CO2 with 95% humidity. The PDC lines were cultured according to standard operating procedures established by the NCI PDMR (https://pdmr.cancer.gov). Briefly, all PDCs were thawed and cultured in Matrigel-coated flasks prepared with a working solution of 1X Ham's F-12 nutrient mix, without supplementation (Invitrogen, Waltham, MA, cat. 11765054), 100 U/mL penicillin-streptomycin (Invitrogen, cat. 15140122), and 2.5% Matrigel (Corning Inc., Corning, NY, cat. 354248) for the first three passages. All PDCs were cultured in complete DMEM/F-12 media containing advanced DMEM/F-12 (Invitrogen, cat. 12634028), 4.9% defined fetal bovine serum, heat inactivated (HyClone Laboratories Inc., Logan, UT, cat. SH30070.03HI), 389 ng/mL hydrocortisone (Sigma-Aldrich, cat. H4001), 9.7 ng/mL human EGF recombinant protein (Invitrogen, cat. PHG0313), 23.4 microg/mL adenine (Sigma-Aldrich, cat. A2786), 97.3 U/mL penicillin-streptomycin (Invitrogen, cat. 15140122), 1.9 mM L-glutamine (Invitrogen, cat. 25030081), and 9.7 microM Y-27632 dihydrochloride (Tocris Bioscience, Bristol, United Kingdom, cat. 1254). The PDCs were cultured in complete DMEM/F12 media without 10 microM Y-27632 dihydrochloride for at least two passages prior to the screen. The established cell lines NCI-H1341 and […] were cultured in DMEM/F-12, HEPES (Invitrogen, cat. 11330032), 5% defined fetal bovine serum (HyClone Laboratories Inc., cat. SH30070.03), ITS premix universal culture supplement [insulin (5 microg/mL), transferrin (5 microg/mL), and selenious acid (5 ng/mL)] […]
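Also: spheroids exposed to agents for seven days before luminescence viability read.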
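For viability, T/C in this document: spheroids also contain HUVEC endothelial cells and human MSC stroma.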

Row | IC50 | Compound | viability, T/C (compound 0.0316 µM) | viability, T/C (compound 0.1 µM) | viability, T/C (compound 0.316 µM) | viability, T/C (compound 1 µM) | viability, T/C (compound 3.16 µM) | viability, T/C (compound 10 µM) | also measured
1 | < 31.6 nM | COc1cccc2c1C(=O)c1c(O)c3c(c(O)c1C2=O)CC(O)(C(=O)CO)CC3OC1CC(N)C(O)C(C)O1 (stereo not drawn) | 12.1% and 24.6% and 20.9% | 7.69% and 19% and 13.3% | 1.29% and 5.3% and 4.49% | 0.27% and 0.62% and 0.79% | 2.73% and 2.97% and 3.14% | 4.37% and 6.2% and 5.59% | 
2 | 572 nM and 231 nM and 199 nM | NS(=O)(=O)OCC1CC(n2ccc3c(NC4CCc5ccccc54)ncnc32)CC1O (stereo not drawn) | 94% and 96.6% and 72.3% | 96.1% and 79.4% and 73.2% | 72.6% and 35.4% and 34.8% | 27.8% and 25.5% and 21.3% | 15.2% and 12.5% and 14% | 6.38% and 8.08% and 8.54% | 
3 | 850 nM and 1440 nM and 937 nM | Nc1ccccc1NC(=O)c1ccc(CNC(=O)OCc2cccnc2)cc1 | 86.3% and 118% and 87.5% | 77.6% and 98.4% and 82.2% | 65.7% and 89.3% and 84.6% | 48.9% and 69.2% and 44.6% | 23.7% and 17.8% and 23.1% | 5.19% and 7.03% and 7.04% | 
4 | 720 nM and 731 nM and 657 nM | O=C(C=Cc1cccc(S(=O)(=O)Nc2ccccc2)c1)NO | 81.9% and 112% and 124% | 83.5% and 128% and 78% | 60.7% and 73.3% and 78.8% | 48.6% and 42.6% and 41.5% | 13.1% and 11.2% and 10.6% | 2.17% and 1.85% and 2.27% | 
5 | 49.6 nM and 21.1 nM and 24 nM | O=C(C=Cn1cnc(-c2cc(C(F)(F)F)cc(C(F)(F)F)c2)n1)NNc1cnccn1 |  |  |  |  |  |  | viability, T/C (compound 0.00949 µM): 101% and 61.6% and 69.8%; viability, T/C (compound 0.03 µM): 59.3% and 45% and 45.2%; viability, T/C (compound 0.0949 µM): 40.3% and 14.9% and 16.5%; viability, T/C (compound 0.3 µM): 12.2% and 12.3% and 7.91%; viability, T/C (compound 0.949 µM): 6.89% and 8.37% and 7.72%; viability, T/C (compound 3 µM): 4.34% and 6.5% and 7.38%
6 | > 10000 nM and 3670 nM and 5620 nM | O=C(c1cc(Cc2n[nH]c(=O)c3ccccc23)ccc1F)N1CCN(C(=O)C2CC2)CC1 | 99.3% and 78.6% and 91.4% | 96.3% and 102% and 76.1% | 102% and 59% and 78.5% | 92.2% and 95.7% and 68.9% | 92.4% and 52.9% and 67.8% | 64.2% and 30% and 36.2% | 

The next lines start with the molecule.

Row | Compound | IC50 | viability, T/C (compound 0.0316 µM) | viability, T/C (compound 0.1 µM) | viability, T/C (compound 0.316 µM) | viability, T/C (compound 1 µM) | viability, T/C (compound 3.16 µM) | viability, T/C (compound 10 µM) | also measured
7 | Cc1cncc(-c2nc(NCCc3c[nH]c4ccccc34)c3ncn(C(C)C)c3n2)c1 |  |  | 97.7% [middle of 20 runs] | 93.4% [middle of 20 runs] |  |  | 2.04% [middle of 19 runs] | 
8 | Cn1ncnc1C1c2n[nH]c(=O)c3cc(F)cc(c23)NC1c1ccc(F)cc1 (stereo not drawn) | > 100 nM | 87.6% and 97.2% and 84.1% | 90.1% and 98.5% and 63.7% |  |  |  |  | viability, T/C (compound 0.000316 µM): 100% and 74.1% and 70.2%; viability, T/C (compound 0.001 µM): 102% and 101% and 105%; viability, T/C (compound 0.00316 µM): 99.4% and 111% and 92.2%; viability, T/C (compound 0.01 µM): 93.1% and 74.3% and 87%
9 | Nc1ccn(C2OC(CO)C(O)C2(F)F)c(=O)n1 (stereo not drawn) | < 31.6 nM | 4.83% and 12.5% and 13.7% | 4.18% and 11.3% and 11.8% | 4.06% and 10.1% and 12.9% | 5.57% and 9.29% and 10.5% | 4.07% and 9.38% and 10.2% | 3.24% and 7.8% and 8.55% | 
10 | Nc1ncn(C2CC(O)C(CO)O2)c(=O)n1 (stereo not drawn) | 204 nM and 54 nM and 32.5 nM | 80% and 57.7% and 46.6% | 67% and 49.8% and 46.6% | 38.9% and 42.3% and 32.5% | 32.3% and 31.3% and 26.1% |  |  | viability, T/C (compound 0.00316 µM): 105% and 99.7% and 103%; viability, T/C (compound 0.01 µM): 103% (2×) and 68.3%
11 | Nc1ncn(C2CC(O)C(CO)S2)c(=O)n1 (stereo not drawn) | 94.1 nM and 121 nM and 111 nM |  |  |  |  |  |  | viability, T/C (compound 0.000949 µM): 97.2% and 92.9% and 82.7%; viability, T/C (compound 0.003 µM): 99.2% and 94.3% and 81.9%; viability, T/C (compound 0.00949 µM): 96.8% and 87.4% and 85.6%; viability, T/C (compound 0.03 µM): 73.7% and 78.3% and 64.3%; viability, T/C (compound 0.0949 µM): 51.7% and 54.9% and 55.8%; viability, T/C (compound 0.3 µM): 29% and 31.2% and 26.1%
